Source: US7919457B2, “Thrombin peptide derivative dimers” (Orthologic Corp., priority 2002, dated 2011)

Legend:
thrombin receptors = test: Peptide competition for [125I]-alpha-thrombin binding to ME cells; settings: for fold higher concentration required for 30% inhibition than p508-530: [125I]-alpha-thrombin binding; for Conc. at Maximal % Inhibition / Concentration Required for 30% Inhibition / Maximal % Inhibition: [125I]-alpha-thrombin binding to ME cells; for Maximal % Inhibition: at the conc. printed below the value
From the text: Thrombin peptide derivatives are believed to activate cells by binding to a high-affinity cell-surface thrombin receptor known as the non-proteolytically-activated thrombin receptor (hereinafter “NPAR”) (R. Horvat, et. al., J. Cell Sci. 108, 1155-1164, 1995). Compounds which stimulate NPAR are said to be thrombin receptor agonists. NPAR activation can be assayed based on the ability of molecules to stimulate cell proliferation when added to fibroblasts in the presence of submitogenic concentrations of thrombin or molecules that activate protein kinase C or compete with ^125I-thrombin for high affinity binding to thrombin receptors, as disclosed in U.S. Pat. Nos. 5,352,664 and 5,500,412 and in Glenn et al., J. Peptide Research 1:65 (1988).
To further identify regions of thrombin involved in high-affinity binding and generation of mitogenic signals, two peptides representing specific domains within p508-530 were tested. The first peptide represented residues 519 to 530 of the B-chain region of human prothrombin, a region of thrombin that is highly conserved among serine proteases. The second peptide represented residues 517 to 520 of prothrombin, a region of thrombin homologous to the fibronectin cell binding domain.
Both of these peptides were able to compete for 30% to 50% of the binding of [^125I]-alpha-thrombin to ME cells, but both required higher concentrations than was required with the initial peptide p508-530 (Table 1). For example, 30% inhibition of [^125I]-alpha-thrombin binding required 33- to 50-fold higher concentrations of p519-530 and p517-520 than p508-530, respectively. Thus, both of these peptides appear to interact with thrombin receptors, but at a lower affinity than p508-530. Because p517-520 is homologous to the fibronectin cell binding domain, a peptide having the sequence Arg-Gly-Ala-Ser (SEQ ID NO:13; the sequence of the fibronectin specific peptide) was also tested for its ability to compete for [^125I]-alpha-thrombin binding. […] Thus, the receptor for alpha-thrombin is not the same membrane protein that specifically interacts with fibronectin and causes the apparent growth promoting action of fibronectin.

NIL cells = settings: increasing concentrations, quiescent NIL cells, 2 and 4 nM alpha-thrombin; FIG. 6 of U.S. Pat. No. 5,500,412; cited from earlier work

| Substance | competition with [125I]-alpha-thrombin for binding (thrombin receptors; at a concentration of 1.3 μM) | fold higher concentration required for 30% inhibition than p508-530 (thrombin receptors) | Conc. at Maximal % Inhibition (thrombin receptors) | Concentration Required for 30% Inhibition (thrombin receptors) | Maximal % Inhibition (thrombin receptors) | effect on DNA synthesis (NIL cells) |
| --- | --- | --- | --- | --- | --- | --- |
| Arg-Gly-Ala-Ser (RGAS; Fibronectin fragment) | did not compete |  |  |  |  |  |
| RGDA (Thrombin peptide fragment) [p517-520] |  | 50 fold | (2.7 μM) | 300 nM | 50% | inhibited DNA synthesis |
| DACEGDSGGPFV (Thrombin peptide derivative) [p519-530] |  | 33 fold | (800 nM) | 200 nM | 51% | enhanced DNA synthesis over a range of concentrations |
